Where two headings read alike, the source gives them in different places.
Molecular target: T1, human mAChR M1 (Homo sapiens, UniProt P11229)
T1 sequence (P11229 1-460): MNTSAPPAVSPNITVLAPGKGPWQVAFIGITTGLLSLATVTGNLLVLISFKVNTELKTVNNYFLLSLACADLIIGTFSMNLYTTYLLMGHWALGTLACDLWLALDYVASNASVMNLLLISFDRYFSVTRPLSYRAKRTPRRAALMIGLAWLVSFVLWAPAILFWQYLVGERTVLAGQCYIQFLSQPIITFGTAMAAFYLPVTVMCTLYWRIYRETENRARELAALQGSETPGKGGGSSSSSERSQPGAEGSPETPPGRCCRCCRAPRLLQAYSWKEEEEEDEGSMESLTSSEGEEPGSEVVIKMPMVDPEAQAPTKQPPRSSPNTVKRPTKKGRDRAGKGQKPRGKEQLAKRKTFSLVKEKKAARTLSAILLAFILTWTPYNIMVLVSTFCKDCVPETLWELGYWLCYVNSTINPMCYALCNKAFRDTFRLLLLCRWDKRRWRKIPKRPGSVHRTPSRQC
Assay: mAChR M1 cell-based functional assay: calcium mobilization, positive allosteric modulator mode (increase in EC20 acetylcholine response)
Conditions: for Emax: read-out: Human M1 Emax (%)
Summary of the method: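 PAM potency reflects the concentration-dependent increase in calcium response to an EC20 acetylcholine challenge, given 144 s into a 300 s read after compound addition at 4 s (EC80 follows at 230 s). Cells were hM1-expressing CHO-K1, loaded 50 min with Fluo-4 AM. Curves used 11 points at 1:3 dilutions and four-parameter logistic fitting.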

[1] = Table 2, human M1, read-out: Human M1 EC50

Row | EC50 [1] [nM] | Emax (Table 2, human M1) [%] | EC50 (Table 1, mAChR M1 cell-based functional assay, PAM mode, species not given, read-out: EC50) [nM] | Compound
1 | 129 | 67.9 |  | Cn1ccc2nc(C(=O)N[C@H]3CCCCC[C@@H]3O)cc(Cc3ccc(-c4cscn4)cc3)c21 [Compound 456, N-[(1S,2S)-2-hydroxycycloheptyl]-1-methyl-7-[(4-thiazol-4-ylphenyl)methyl]pyrrolo[3,2-b]pyridine-5-carboxamide]
2 | 2310 | 79.9 |  | Cn1ccc(-c2ccc(Cc3cc(C(=O)NCC4CCOCC4)nc4ccn(C)c34)cn2)n1 [Compound 508, 1-methyl-7-[[6-(1-methylpyrazol-3-yl)-3-pyridyl]methyl]-N-(tetrahydropyran-4-ylmethyl)pyrrolo[3,2-b]pyridine-5-carboxamide;]
3 | 6000 | 66.6 |  | O=C(NC1CCCCNC1=O)c1cc(Cc2ccc(C(F)(F)F)nc2)c2sccc2n1 (centres unmarked) [Compound 98, N-(2-oxoazepan-3-yl)-7-[[6-(trifluoromethyl)-3-pyridyl]methyl]thieno[3,2-b]pyridine-5-carboxamide]
4 | 3890 | 69.7 |  | O=C(NC1CCCCC1)c1cc(Cc2ccc(-c3cscn3)cc2)c2sccc2n1 [Compound 209, N-cyclohexyl-7-[(4-thiazol-4-ylpheny)methyl]thieno[3,2-b]pyridine-5-carboxamide]
5 |  |  | > 10000 | Cc1ccc(Oc2cc(C(=O)NC(C)C(C)(C)CO)nc3ccsc23)cn1 (centres unmarked) [Compound 34, N-(3-hydroxy-1,2,2-trimethyl-propyl)-7-[(6-methyl-3-pyridyl)oxy]thieno[3,2-b]pyridine-5-carboxamide]
6 | > 10000 | 51.5 |  | Cc1ncc(Cc2cc(C(=O)N[C@@H]3COCC[C@H]3O)nc3ccsc23)cn1 [Compound 129, N-[(3R,4R)-4-hydroxytetrahydropyran-3-yl]-7-[(2-methylpyrimidin-5-yl)methyl]thieno[3,2-b]pyridine-5-carboxamide]
7 | 12.7 | 68.7 |  | Cn1cc(-c2ccc(Cc3cc(C(=O)N[C@@H]4CCCC[C@H]4O)nc4ccsc34)cc2)nn1 [Compound 155, N-[(1R,2R)-2-hydroxycyclohexyl]-7-[[4-(1-methyltriazol-4-yl)phenyl]methyl]thieno[3,2-b]pyridine-5-carboxamide]
8 | 4650 | 66.6 |  | Cn1ccc(-c2ccc(Cc3cc(C(=O)N[C@H]4CCOC4)nc4ccsc34)cn2)n1 [Compound 417, 7-[[6-(1-methylpyrazol-3-yl)-3-pyridyl]methyl]-N-[(3S)-tetrahydrofuran-3-yl]thieno[3,2-b]pyridine-5-carboxamide]
9 | 368 | 69.9 |  | O=C(NC1CCOCC1)c1ccc(Cc2cc(C(=O)NC3CCOCC3)nc3ccsc23)cc1 [Compound 407, N-tetrahydropyran-4-yl-7-[[4-(tetrahydropyran-4-ylcarbamoyl)phenyl]methyl]thieno[3,2-b]pyridine-5-carboxamide]

Second part, the compound before the results:

Row | Compound | EC50 [1] [nM] | Emax (Table 2, human M1) [%] | EC50 (Table 1, mAChR M1 cell-based functional assay, PAM mode, species not given, read-out: EC50) [nM]
10 | O=C(N[C@H]1CCC[C@@H]1O)c1cc(Cc2ccc(-c3cscn3)cc2)c2sccc2n1 [Compound 206, N-[(1S,2S)-2-hydroxycyclopentyl]-7-[(4-thiazol-4-ylphenyl)methyl]thieno[3,2-b]pyridine-5-carboxamide] | 38.8 | 87 | 
11 | Cn1ccc2nc(C(=O)N[C@H]3CCOC[C@@H]3O)cc(Cc3ccc(-c4cscn4)cc3)c21 [Compound 450, N-[(3R,4S)-3-hydroxytetrahydropyran-4-yl]-1-methyl-7-[(4-thiazol-4-ylphenyl)methyl]pyrrolo[3,2-b]pyridine-5-carboxamide] | 6.89 | 71 | 
12 | CO[C@H]1CCCC[C@@H]1NC(=O)c1cc(Cc2ccc(-c3cscn3)cc2)c2sccc2n1 [Compound 218, N-[(1S,2S)-2-methoxycyclohexyl]-7-[(4-thiazol-4-ylphenyl)methyl]thieno[3,2-b]pyridine-5-carboxamide] | > 10000 | 52.2 | 
13 | Cc1nc(-c2ccc(Cc3cc(C(=O)NC4CCN5CCCC45)nc4ccsc34)cc2)cs1 (centres unmarked) [Compound 197, N-(hexahydro-1H-pyrrolizin-1-yl)-7-[[4-(2-methylthiazol-4-yl)phenyl]methyl]thieno[3,2-b]pyridine-5-carboxamide] | 1380 | 80.8 | 
14 | O=C(N[C@H]1CCCCC[C@@H]1O)c1cc(Cc2ccc(-c3cscn3)cc2)c2sccc2n1 [Compound 219, N-[(1S,2S)-2-hydroxycycloheptyl]-7-[(4-thiazol-4-ylphenyl)methyl]thieno[3,2-b]pyridine-5-carboxamide] | 144 | 73 | 
15 | Cc1nc(-c2ccc(Cc3cc(C(=O)NC4CCCCC4)nc4ccsc34)cc2)co1 [Compound 162, N-cyclohexyl-7-[[4-(2-methyloxazol-4-yl)phenyl]methyl]thieno[3,2-b]pyridine-5-carboxamide] | 5040 | 74 | 
16 | Cc1nn(C)cc1-c1ccc(Cc2cc(C(=O)N[C@H]3CCCC[C@@H]3O)nc3ccsc23)cc1 [Compound 250] | > 10000 | 48.1 | 
17 | Cn1ccc(-c2ccc(Cc3cc(C(=O)NCC4CCN4)nc4ccsc34)cn2)n1 (centres unmarked) [Compound 421, N-(azetidin-2-ylmethyl)-7-[[6-(1-methylpyrazol-3-yl)-3-pyridyl]methyl]thieno[3,2-b]pyridine-5-carboxamide] | 422 | 66.9 | 
18 | O=C(N[C@@H]1CCC[C@H]1O)c1cc(Cc2ccc(C(F)(F)F)nc2)c2sccc2n1 [Compound 88, N-[(1R,2R)-2-hydroxycyclopentyl]-7-[[6-(trifluoromethyl)-3-pyridyl]methyl]thieno[3,2-b]pyridine-5-carboxamide] | 503 | 90.5 | 
19 | Cn1ccc2nc(C(=O)NCC3CCOCC3)cc(Cc3ccc(-c4cscn4)cc3)c21 [Compound 466, 1-methyl-N-(tetrahydropyran-4-ylmethyl)-7-[(4-thiazol-4-ylphenyl)methyl]pyrrolo[3,2-b]pyridine-5-carboxamide] | 364 | 72.2 | 
20 | Cc1ccc(Cc2cc(C(=O)NC34CC5CC(CC(O)(C5)C3)C4)nc3ccsc23)cn1 [Compound 63, N-(3-hydroxy-1-adamantyl)-7-[(6-methyl-3-pyridyl)methyl]thieno[3,2-b]pyridine-5-carboxamide] | 3990 | 87 | 
21 | Cc1ccc(Cc2cc(C(=O)NC3(C#N)CC3)nc3ccsc23)cn1 [Compound 257, N-(1-cyanocyclopropyl)-7-[(6-methyl-3-pyridyl)methyl]thieno[3,2-b]pyridine-5-carboxamide] | > 10000 | 26.4 | 
22 | O=C(N[C@H]1CCOC1)c1cc(Cc2ccc(-c3cscn3)cc2)c2sccc2n1 [Compound 208, N-[(3S)-tetrahydrofuran-3-yl]-7-[(4-thiazol-4-ylphenyl)methyl]thieno[3,2-b]pyridine-5-carboxamide] | 1880 | 80.3 | 
23 | CC1(C)CC(NC(=O)c2cc(Cc3ccc(-c4nccs4)cc3)c3sccc3n2)CCO1 (centres unmarked) [Compound 337] | 852 | 84.2 | 
24 | Cc1nc(-c2ccc(Cc3cc(C(=O)N[C@H]4CCOC4)nc4ccsc34)cc2)cs1 [Compound 184, 7-[[4-(2-methylthiazol-4-yl)phenyl]methyl]-N-[(3S)-tetrahydrofuran-3-yl]thieno[3,2-b]pyridine-5-carboxamide] | 3610 | 68.5 | 
